Measurements from patent US20110091531A1, “Cooling Composition” (GIV AUDAN SA, priority 2008, published 2011).

Assay: Solubility of Evercool 180 alone in solvent under regular conditions
Assay type: physicochemical

## CC(C)[C@@H]1CC[C@@H](C)C[C@H]1C(=O)Nc1ccc(CC#N)cc1 [Evercool™ 180, (1R,2S,5R)—N-(4-(cyanomethyl)phenyl)-2-isopropyl-5-methylcyclohexane-carboxamide]
At 65° C. under regular conditions
  Soluble in menthol: 17%
At room temperature under regular conditions
  Soluble in peppermint oil: 12%
Under regular conditions
  Solubility in Orange oil (1× Brazilian): > 1%
